# Measurements published in patent US7485434B2, “Method for screening compounds for those that modulate transducers of regulated CREB activity” (The Salk Institute for Biological Studies, priority 2005, dated 2009).
# Assays:
# [1] = test system: β cell; settings: organ transplant recipients receiving chronic immunosuppressive therapy; cited from earlier work
# [2] = test system: TORC2; assay: TORC2 phosphorylation in primary rat hepatocytes (Western blot); format: cell-based; settings: primary rat hepatocytes
# Description: FIG. 18B illustrates the effect of CHX on levels of phospho (Ser171) TORC2 in primary rat hepatocytes treated with glucagon over a variety of time points, shown in hours. Western blot assay indicates the levels of TORC2, phospho (Ser171) TORC2 and CREB.
# Specifically, FIG. 19A, top, presents a Western blot showing the effect of US and SIK1 RNAi adenoviruses on the levels of SIK1 protein in rat hepatocytes. FIG. 19A, bottom, presents a Western blot assay with nondiscriminating TORC2 antiserum, showing the effect of SIK1 RNAi adenovirus on TORC2 dephosphorylation (compare P-TORC2 and TORC2 bands) following exposure of primary rat hepatocytes to glucagon (Gluc). The arrow identifies phosphorylated TORC2.
# Cells were exposed to AICAR and FSK for 30 minutes. Lower mobility bands (arrow) indicate phosphorylated TORC2 polypeptides.
# Rat primary hepatocytes were prepared from 200-300g of Sprague-Dawley rats by collagenase perfusion method as described previously (see Koo et al., 2004). 1×10^6 cells were plated in 6 well plates with medium 199 (Invitrogen, Carlsbad, Calif.) supplemented by 10% FBS, 10 units/ml penicillin, 10 μg/ml streptomycin, and 10 nM dexamethasone for 3-6 hours. After attachment, cells were infected with adenoviruses for 16 hours. Subsequently, cells were maintained in medium 199 without FBS and dexamethasone for 24 hours (for cDNA expression adenoviruses) or 48 hours (for RNAi adenoviruses) and […] forskolin or 100 nM glucagon for 2 hours unless noted otherwise. For experiments with cycloheximide, 10 μg/ml cycloheximide was added 30 minutes prior to the addition of 100 nM glucagon.
# Like other signaling pathways, cAMP stimulates gluconeogenic gene expression with burst-attenuation kinetics (see Sasaki et al., 1984). Following exposure of primary hepatocytes to Forskolin, PEPCK mRNA levels became maximal after 2 hours, returning to near baseline after 4 hours (see FIG. 18A). […] Consistent with this, CHX pre-treatment potentiated gluconeogenic gene expression in primary rat hepatocytes exposed to glucagon 2-3 fold (see FIG. 18C). […]
# [3] = test system: gluconeogenic genes (PEPCK, PGC-1α, G6Pase); assay: Q-PCR of gluconeogenic gene expression in primary rat hepatocytes; format: cell-based; settings: primary rat hepatocytes exposed to glucagon; CHX pre-treatment
# Experimental: Specifically, FIG. 17A illustrates the effect of TORC2 on induction of gluconeogenic genes (PEPCK, PGC-1α, G6Pase) by FSK (10 μM, 2 hr) in cultured primary rat hepatocytes infected with TORC2 or control GFP adenovinus as indicated.
# FIGS. 18A-18H illustrate that the induction of the AMP kinase family member SIK1 by CREB during fasting attenuates the gluconeogenic program. Specifically, FIG. 18A illustrates the time course of PEPCK gene expression in primary rat hepatocytes following exposure to FSK. mRNA levels were determined by Q-PCR analysis.
# FIG. 18C illustrates the effect of CHX pretreatment on induction of gluconeogenic genes (PEPCK, PGC-1α, G6Pase) by glucagon in primary rat hepatocytes. Relative mRNA levels are shown.
# FIG. 19B summarizes the effect of SIK1 RNAi on gluconeogenic gene expression in primary rat hepatocytes, presenting Q-PCR analysis showing the relative induction of PEPCK, PGC-1α, and G6Pase mRNAs by glucagon in cells infected with control (US) or SIK1 RNAi expressing adenoviruses.
# FIG. 20D summarizes the effect of AlCAR on expression of gluconeogenic genes (PEPCK, PGC-1α) in primary rat hepatocytes. Cells infected with mutant Ser171Ala TORC2 (171) adenovinus indicated. Treatment with AICAR and FSK is shown.
# Rat primary hepatocytes were prepared from 200-300g of Sprague-Dawley rats by collagenase perfusion method as described previously (see Koo et al., 2004). […]
# [4] = test system: CREB target gene NR4A2; assay: Quantitative PCR of CREB target gene NR4A2 in MIN6 insulinoma cells; format: cell-based
# Experimental: FIG. 1B presents quantitative PCR (Q-PCR) analysis of the CREB target gene NR4A2 in MIN6 insulinoma cells exposed to glucose (20 mM) and/or exendin-4 (10 nM).
# Cells were treated with cAMP agonist (Forskolin, 10 μM) and KCl (45 mM) or vehicle control. For glucose experiments, MIN6 cells were starved overnight in DME containing 2.75 mM glucose plus 16 mM mannitol and 10% FBS. The next day the medium was changed for the indicated times+inhibitor. Total RNA from treated MIN6 or HIT cells was extracted using an RNeasy mini-kit (Qiagen, Valencia, Calif.). 500 ng-1 μg of total RNA was used for generating cDNA with Superscript II enzyme (Invitrogen, Carlsbad, Calif.). cDNAs were analyzed by quantitative PCR using SYBR green PCR kit and an ABIPRISM 7700 Sequence detector (Perkin Elmer, Foster City, Calif.). All PCR data for CREB target NR4A2 (Conkright et al., 2003b) was normalized to ribosomal L32 or 36B4 expression in the corresponding sample.
# Hamster insulinoma (HIT) cells were employed to test the relative effects of cAMP and calcium signals on CREB activity. Opening of voltage-sensitive L-type calcium channels in response to KC1 depolarization induced the CREB-dependent EVX-1 promoter (Conknight et al., 2003b) 5-fold in HIT cells, whereas addition of cAMP agonist stimulated the reporter 10-fold (see FIG. 1A). […]
# [5] = test system: TORC2; assay: Immunofluorescence of TORC localization in ATYB1 fibroblasts; format: cell-based, human; settings: ATYB1 cells
# Experimental: Specifically, FIG. 3A presents fluorescence microscopic analysis of Flag-tagged TORC2 in human ATYBI fibroblasts treated with forskolin (10 μM) or control vehicle for 30 minutes as indicated.
# FIG. 3B illustrates the effect of exportin inhibitor leptomycin B (LMB) on nuclear targeting of TORC2 in transfected ATYB1 fibroblasts. DAPI staining is shown alongside to indicate nuclei.
# FIG. 7C, top panels, illustrate the effect of SIK2 (or related family members) on TORC2 subcellular localization. Immunofluorescence microscopy is presented for ATYB1 cells transfected with Flagtagged TORC2 plus wild-type or PKA phosphorylation defective SIK2 (Ser587Ala) as indicated. DAP1 staining is shown below each panel. FIG. 7C, bottom panels, illustrate the effect of Ser171 Ala mutagenesis on cellular localization of TORC2. Treatment with forskolin is indicated.
# FIG. 13, top panels, illustrates the cellular localization of endogenous TORC proteins in ATYBI cells using TORC specific antiserum. The effect of forskolin (10 μM, 30 minutes) and leptomycin B (LMB, 10 ng/ml, 2 hr) treatment is shown. DAP1 staining is shown below to visualize the nuclei. FIG. 13, bottom panel, illustrates the effect of LMB treatment on TORC1 localization in ATYBI cells transfected with flag-tagged TORC1 expression vector. TORC1 localization was followed using anti-flag antiserum. DAP1 staining is shown alongside. […]
# [6] = test system: CREB; assay: CREB Ser133 phosphorylation in liver after IP injection (histochemical and Western blot); format: in vivo; settings: mice; intraperitoneal administration
# [7] = test system: TORC2; assay: TORC2 localization, Ser171 phosphorylation and promoter recruitment in liver after IP injection; format: in vivo; settings: mice
molecule,measurement,setting,value
C=CC[C@@H]1/C=C(\C)C[C@H](C)C[C@H](OC)[C@H]2O[C@@](O)(C(=O)C(=O)N3CCCC[C@H]3C(=O)O[C@H](/C(C)=C/[C@@H]3CC[C@@H](O)[C@H](OC)C3)[C@H](C)[C@@H](O)CC1=O)[C@H](C)C[C@@H]2OC [FK506],β cell failure and diabetes,[1],cause β cell failure and diabetes with high frequency
C[C@@H]1C[C@@H]([C@H](O)CC2CC(=O)NC(=O)C2)C(=O)[C@@H](C)C1 [cycloheximide],effect on TORC2 Ser171 phosphorylation by glucagon at 3 hours,[2]; CHX pre-treatment 10 μg/ml,blocked phosphorylation of TORC2 at Ser171
same,potentiation of gluconeogenic gene expression,[3],2-3 fold
O=C[C@H](O)[C@@H](O)[C@H](O)[C@H](O)CO [glucose],induction of NR4A2 expression,[4]; high glucose (20 mM),5 fold
CCC(=C/[C@H](C)C/C=C/C(C)=C/[C@@H](C)C(=O)[C@@H](C)[C@H](O)[C@@H](C)C/C(C)=C/C(=O)O)/C=C/[C@@H]1OC(=O)C=C[C@@H]1C [leptomycin B],time to nuclear accumulation of TORC,[5],30 to 60 min
same,nuclear accumulation of TORC,[5]; forskolin 10 μM or LMB 10 ng/ml,strongly enhanced nuclear accumulation
Exendin-4,NR4A2 mRNA levels enhanced,[4]; co-stimulation glucose (20 mM) plus exendin-4 (10 nM),35 fold
glucagon,CREB Ser133 phosphorylation in liver,[6],promote CREB Ser133 phosphorylation in liver
same,time to CREB Ser133 phosphorylation in liver,[6],≤ 10 min
same,recruitment of TORC2 to gluconeogenic genes (ChIP of liver tissue),[7]; 10 minutes after IP administration,promoted recruitment of TORC2 to gluconeogenic genes
same,TORC2 phosphorylation at Ser171 in liver,[7]; IP administration,dephosphorylated
same,nuclear translocation of hepatic TORC2,[7]; IP administration,induced translocation of TORC2 to liver nuclei
same,time to translocation of TORC2 to liver nuclei,[7]; IP administration,≤ 10 min
same,TORC2 phosphorylation at Ser171,[2]; 3 hours after stimulation,strongly induced
